Laboratory results reported in PubChem BioAssay AID1963875 (Molecular Pharmacology Branch, DTP, NCI, 2024).

System: KRAS-mutant PDC complex spheroid viability
Experiment: Anticancer human tumor 186277-243-T-J2-PDC patient-derived colon adenocarcinoma cell line growth inhibition [KRAS2]
Conditions: for IC50: curve of first compound; for viability, T/C: stronger effect = lower value
From the text: Multicellular complex tumor spheroid response to RAS pathway inhibitors in combination with a targeted agents in patient-derived cell lines with oncogenic KRAS variants from multiple cancer types
A high-throughput screen of multi-cell type tumor spheroids was designed to identify active combinations of targeted small molecules and KRAS pathway inhibitors. Complex spheroids include a stromal component modeled by human endothelial cells (HUVEC) and fibroblasts modeled by human mesenchymal stem cells (MSCs). The concentration ranges selected for each drug and investigational agent were based upon clinically achievable concentrations if the clinical Cmax of the agent was known.
Compounds. The drugs and investigational agents: BI-3406 (NSC825286), BAY-293 (NSC824723), batoprotafib (TNO155; NSC825523), sotorasib (AMG 510; NSC818433), MRTX1257 (NSC819558), elimusertib (BAY 1895344; NSC800525), molibresib (GSK525762; NSC774829), temuterkib (LY3214996; NSC803410), venetoclax (NSC766270), alisertib (NSC759677), olaparib (NSC753686), talazoparib (NSC767125), erdafitinib (NSC781556), ipatasertib (NSC767898), cabozantinib (NSC761068), nintedanib (NSC756659), abemaciclib (NSC768073), docetaxel (NSC628503), trametinib (NSC758246), and sapanisertib (NSC764658) were obtained from the National Cancer Institute (NCI) Developmental Therapeutics Program Chemical Repository. The FDA-approved anticancer drug set is available from the Developmental Therapeutics Program. […] The stock solutions were prepared in dimethyl sulfoxide (DMSO, Sigma-Aldrich, St. Louis, MO, cat. D2650) at 800-fold the tested concentration and stored at -70 degrees C prior to their use. All drugs and investigational agents were tested over a range starting from a high concentration at or near the clinical Cmax and decreasing in half-log increments. If the clinical Cmax for an agent had not been determined, the highest concentration tested was 10 microM.
Cell Culture. All cells were maintained in an incubator at 37 degrees C and 5% CO2 with 95% humidity. The PDC lines were cultured according to standard operating procedures established by the NCI PDMR (https://pdmr.cancer.gov/sops/default.htm). Briefly, all PDCs were thawed and cultured in Matrigel-coated flasks prepared with a working solution of 1X Ham's F-12 nutrient mix, without supplementation (Invitrogen, Waltham, MA, cat. 11765054), 100 U/mL penicillin-streptomycin (Invitrogen, cat. 15140122), and 2.5% Matrigel (Corning Inc., Corning, NY, cat. 354248) for the first three passages. All PDCs were cultured in complete DMEM/F-12 media containing advanced DMEM/F-12 (Invitrogen, cat. 12634028), 4.9% defined fetal bovine serum, heat inactivated (HyClone Laboratories Inc., Logan, UT, cat. SH30070.03HI), 389 ng/mL hydrocortisone (Sigma-Aldrich, cat. H4001), 9.7 ng/mL human EGF recombinant protein (Invitrogen, cat. PHG0313), 23.4 microg/mL adenine (Sigma-Aldrich, cat. A2786), 97.3 U/mL penicillin-streptomycin (Invitrogen, cat. 15140122), 1.9 mM L-glutamine (Invitrogen, cat. 25030081), and 9.7 microM Y-27632 dihydrochloride (Tocris Bioscience, Bristol, United Kingdom, cat. 1254). The PDCs were cultured in complete DMEM/F12 media without 9.7 microM Y-27632 dihydrochloride for at least two passages prior to the screen. The established cell line HOP-62 was cultured in RPMI 1640 medium, HEPES (Invitrogen, cat. 22400105) with 10% defined fetal bovine serum (HyClone Laboratories Inc., cat. SH30070.03) and 2 mM L-glutamine (Invitrogen, cat. 25030081). The pooled donor HUVEC were cultured in endothelial cell growth medium 2 (PromoCell, Heidelberg, Germany, cat. C-22011) and the hMSC were cultured in mesenchymal stem cell growth medium 2 (PromoCell, cat. C-28009). For all experiments, HUVEC and hMSC were used at passages </=5, while the malignant cell lines were used at passages </=15. […]

[1] = second compound 0.1 µM, first compound 0.0316 µM
[2] = second compound 0.1 µM, first compound 0.1 µM
[3] = second compound 0.1 µM, first compound 0.316 µM
[4] = second compound 0.1 µM, first compound 1 µM
[5] = second compound 0.1 µM, first compound 3.16 µM
[6] = second compound 0.1 µM, first compound 10 µM
[7] = second compound 0.316 µM, first compound 0.0316 µM
[8] = second compound 0.316 µM, first compound 0.1 µM
[9] = second compound 0.316 µM, first compound 0.316 µM
[10] = second compound 0.316 µM, first compound 1 µM
[11] = second compound 0.316 µM, first compound 3.16 µM
[12] = second compound 0.316 µM, first compound 10 µM
[13] = second compound 1 µM, first compound 0.0316 µM
[14] = second compound 1 µM, first compound 0.1 µM
[15] = second compound 1 µM, first compound 0.316 µM
[16] = second compound 1 µM, first compound 1 µM
[17] = second compound 1 µM, first compound 3.16 µM
[18] = second compound 1 µM, first compound 10 µM
[19] = second compound 3.16 µM, first compound 0.0316 µM
[20] = second compound 3.16 µM, first compound 0.1 µM
[21] = second compound 3.16 µM, first compound 0.316 µM
[22] = second compound 3.16 µM, first compound 1 µM
[23] = second compound 3.16 µM, first compound 3.16 µM
[24] = second compound 3.16 µM, first compound 10 µM
[25] = second compound 10 µM, first compound 0.0316 µM
[26] = second compound 10 µM, first compound 0.1 µM
[27] = second compound 10 µM, first compound 0.316 µM
[28] = second compound 10 µM, first compound 1 µM
[29] = second compound 10 µM, first compound 3.16 µM
[30] = second compound 10 µM, first compound 10 µM
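For viability, T/C in this document: viability read after seven days of compound exposure; 100% = DMSO vehicle-treated spheroids so lower means less viable.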

Compound	IC50 (second compound 0.1 µM) [nM]	IC50 (second compound 0.316 µM) [nM]	IC50 (second compound 1 µM) [nM]	IC50 (second compound 3.16 µM) [nM]	IC50 (second compound 10 µM) [nM]	viability, T/C [1] [%]	viability, T/C [2] [%]	viability, T/C [3] [%]	viability, T/C [4] [%]	viability, T/C [5] [%]	viability, T/C [6] [%]	viability, T/C [7] [%]	viability, T/C [8] [%]	viability, T/C [9] [%]	viability, T/C [13] [%]	viability, T/C [14] [%]	viability, T/C [19] [%]	viability, T/C [20] [%]	viability, T/C [25] [%]	viability, T/C [26] [%]	also measured
CC1(C)CCC(CN2CCN(c3ccc(C(=O)NS(=O)(=O)c4ccc(NCC5CCOCC5)c([N+](=O)[O-])c4)c(Oc4cnc5[nH]ccc5c4)c3)CC2)=C(c2ccc(Cl)cc2)C1 + CC1OCC2(CCN(c3cnc(Sc4ccnc(N)c4Cl)c(N)n3)CC2)C1N	2270	2350	2130	1750	1550	103	115	127	120	23.1	0.76	128	136	130	140	115	98.9	112	80.1	82.7	viability, T/C [10]: 130%; viability, T/C [11]: 22.1%; viability, T/C [12]: 0.38%; viability, T/C [15]: 113%; viability, T/C [16]: 116%; viability, T/C [17]: 16%; viability, T/C [18]: 0.34%; viability, T/C [21]: 100%; viability, T/C [22]: 93.8%; viability, T/C [23]: 3.38%; viability, T/C [24]: 0.22%; viability, T/C [27]: 87.7%; viability, T/C [28]: 79%; viability, T/C [29]: 2.4%; viability, T/C [30]: 0.21%
COC(=O)c1ccc2c(C(=Nc3ccc(N(C)C(=O)CN4CCN(C)CC4)cc3)c3ccccc3)c(O)[nH]c2c1 + C=CC(=O)N1CCN(c2nc(=O)n(-c3c(C)ccnc3C(C)C)c3nc(-c4c(O)cccc4F)c(F)cc23)C(C)C1	2130	882	1570	462	204	95.6	93	94.4	104	25.4	12.7	87.5	96.1	97.7	96	92.9	96.1	96.8	56.1	63.4	viability, T/C [10]: 44.6%; viability, T/C [11]: 19.7%; viability, T/C [12]: 6.92%; viability, T/C [15]: 102%; viability, T/C [16]: 73%; viability, T/C [17]: 13.7%; viability, T/C [18]: 3.67%; viability, T/C [21]: 53.5%; viability, T/C [22]: 33.5%; viability, T/C [23]: 6.72%; viability, T/C [24]: 3.16%; viability, T/C [27]: 43.5%; viability, T/C [28]: 12.5%; viability, T/C [29]: 1.11%; viability, T/C [30]: 0.14%
CN(C)C/C=C/C(=O)Nc1cc2c(Nc3ccc(F)c(Cl)c3)ncnc2cc1O[C@H]1CCOC1 + COc1cc2nc(C)nc(NC(C)c3cc(N)cc(C(F)(F)F)c3)c2cc1OC1CCOC1	> 100	> 100	> 100	> 100	> 100	108	96.8					99.2	89.2		113	105	84.4	79.3	81.4	61.4	viability, T/C (second compound 0.1 µM, first compound 0.000316 µM): 102%; viability, T/C (second compound 0.1 µM, first compound 0.001 µM): 107%; viability, T/C (second compound 0.1 µM, first compound 0.00316 µM): 112%; viability, T/C (second compound 0.1 µM, first compound 0.01 µM): 110%; viability, T/C (second compound 0.316 µM, first compound 0.000316 µM): 94.3%; viability, T/C (second compound 0.316 µM, first compound 0.001 µM): 105%; viability, T/C (second compound 0.316 µM, first compound 0.00316 µM): 106%; viability, T/C (second compound 0.316 µM, first compound 0.01 µM): 115%; viability, T/C (second compound 1 µM, first compound 0.000316 µM): 96.7%; viability, T/C (second compound 1 µM, first compound 0.001 µM): 93.8%; viability, T/C (second compound 1 µM, first compound 0.00316 µM): 91%; viability, T/C (second compound 1 µM, first compound 0.01 µM): 105%; viability, T/C (second compound 3.16 µM, first compound 0.000316 µM): 93.4%; viability, T/C (second compound 3.16 µM, first compound 0.001 µM): 97.9%; viability, T/C (second compound 3.16 µM, first compound 0.00316 µM): 97.4%; viability, T/C (second compound 3.16 µM, first compound 0.01 µM): 100%; viability, T/C (second compound 10 µM, first compound 0.000316 µM): 109%; viability, T/C (second compound 10 µM, first compound 0.001 µM): 105%; viability, T/C (second compound 10 µM, first compound 0.00316 µM): 114%; viability, T/C (second compound 10 µM, first compound 0.01 µM): 91.2%
COC(=O)c1ccc2c(C(=Nc3ccc(N(C)C(=O)CN4CCN(C)CC4)cc3)c3ccccc3)c(O)[nH]c2c1 + COc1cc2nc(C)nc(NC(C)c3cc(N)cc(C(F)(F)F)c3)c2cc1OC1CCOC1	2190	2210	1970	1450	463	99	108	106	119	22.8	13.4	87.2	102	100	95.6	98.6	96.6	94	74.5	81.5	viability, T/C [10]: 104%; viability, T/C [11]: 28.3%; viability, T/C [12]: 10.9%; viability, T/C [15]: 106%; viability, T/C [16]: 115%; viability, T/C [17]: 12.7%; viability, T/C [18]: 8.29%; viability, T/C [21]: 114%; viability, T/C [22]: 72%; viability, T/C [23]: 5.65%; viability, T/C [24]: 0.14%; viability, T/C [27]: 62.8%; viability, T/C [28]: 22.1%; viability, T/C [29]: 0.18%; viability, T/C [30]: 0.19%
